The experiment deals with phosphoenolpyruvate carboxylase (PEPC). Format: biochemical, wheat germ.

Several values for one entry are separate records, joined by “and”; a condition that tells them apart may be missing. Identical values can stand only once.

Take `N#CS` [KSCN, potassium thiocyanate]: the “k × 10^3” value was 4.67 and 4.70 and 4.72 and 4.62 and 4.55 and 4.46. With `[K+].[O-][Cl+3]([O-])([O-])[O-]` [KClO4], the “T1/2 (half-life seconds)” value was determined as 104 s and the “k × 10^3” value is reported as 6.3.

In the case of `[I-].[K+]` [KI], the “k × 10^3” value is listed as 12.

For the compound `[K+].[O-][Cl+2]([O-])[O-]` [KClO3], the “k × 10^3” value was determined as 24.

The values are drawn from US5480777A (priority 1995, dated 1996).
